Test results taken from ChEMBL document CHEMBL1201862, “PubChem BioAssay data set” (2004).
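48-hour exposure; five concentrations; linearly interpolated endpoints. Abbreviation: GI50, concentration required for 50% inhibition of growth.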 The source made the active and inactive calls. No stated cut-off is given here; in the data, active = GI50 up to about 1.1 µM and inactive = higher.

Assays:
Assay in all cases: growth of human tumour cells (NCI), 48 h
OVCAR-5 = tested on: OVCAR-5
SNB-19 = tested on: SNB-19
HOP-62 = tested on: HOP-62
M14 = tested on: M14
OVCAR-3 = tested on: OVCAR-3
SK-OV-3 = tested on: SK-OV-3
NCI-H226 = tested on: NCI-H226
K562 = tested on: K562
SR = tested on: SR
COLO 205 = tested on: COLO 205
Malme-3M = tested on: Malme-3M
RPMI-8226 = tested on: RPMI-8226
SK-MEL-2 = tested on: SK-MEL-2
OVCAR-8 = tested on: OVCAR-8

Measured: GI50

CCCCCC(CN1CCOCC1)C(=O)/C=C/c1ccccc1 (stereo unspecified)
inactive: OVCAR-5 2.63 µM | SNB-19 3.43 µM | HOP-62 5 µM | M14 2 µM | OVCAR-3 2.3 µM | SK-OV-3 2.71 µM | NCI-H226 3.36 µM | K562 2.16 µM | SR 1.95 µM | COLO 205 3.77 µM | Malme-3M 2.1 µM | RPMI-8226 2.11 µM

Nc1ccc(C(=O)O)c2[nH]c3ccccc3c(=O)c12
inactive: OVCAR-5 > 100 µM | SNB-19 > 100 µM | HOP-62 > 100 µM | M14 > 100 µM | SK-OV-3 > 100 µM | SK-MEL-2 > 100 µM | OVCAR-8 > 100 µM | K562 > 100 µM | SR > 100 µM | COLO 205 > 100 µM | Malme-3M > 100 µM | RPMI-8226 > 100 µM

CCOC(=O)c1cnc2[nH]c(=O)c3ccccc3n2c1=O
inactive: OVCAR-5 > 100 µM | SNB-19 > 100 µM | HOP-62 > 100 µM | M14 > 100 µM | OVCAR-3 > 100 µM | SK-OV-3 > 100 µM | SK-MEL-2 > 100 µM | OVCAR-8 > 100 µM | NCI-H226 > 100 µM | K562 65 µM | SR > 100 µM | COLO 205 > 100 µM | Malme-3M > 100 µM | RPMI-8226 > 100 µM

CCCC(N)C(=O)c1ccccc1 (stereo unspecified)
inactive: OVCAR-5 > 100 µM | SNB-19 > 100 µM | HOP-62 > 100 µM | M14 > 100 µM | OVCAR-3 > 100 µM | SK-OV-3 > 100 µM | SK-MEL-2 > 100 µM | OVCAR-8 > 100 µM | NCI-H226 > 100 µM | K562 > 100 µM | SR > 100 µM | COLO 205 > 100 µM | Malme-3M > 100 µM | RPMI-8226 > 100 µM

CCN(CC)CCCCC1CCN(CC(=O)N2c3ccccc3NC(=O)c3ccccc32)CC1
inactive: SNB-19 > 100 µM | HOP-62 > 100 µM | M14 19.4 µM | OVCAR-3 > 100 µM | SK-OV-3 > 100 µM | SK-MEL-2 > 100 µM | OVCAR-8 > 100 µM | NCI-H226 > 100 µM | K562 > 100 µM | SR > 100 µM | COLO 205 > 100 µM | Malme-3M 81.5 µM | RPMI-8226 > 100 µM

CC1CCCCc2nc3c(c(=O)n21)CCCC3 (stereo unspecified)
inactive: OVCAR-5 > 100 µM | SNB-19 > 100 µM | HOP-62 > 100 µM | M14 > 100 µM | OVCAR-3 > 100 µM | SK-OV-3 > 100 µM | SK-MEL-2 > 100 µM | OVCAR-8 63.2 µM | NCI-H226 > 100 µM | K562 > 100 µM | COLO 205 > 100 µM | Malme-3M > 100 µM

CC1(C)c2ccccc2C(C)(C)C(C(=O)Nc2ccccc2)C1C(=O)O (stereo unspecified)
inactive: OVCAR-5 > 100 µM | SNB-19 > 100 µM | HOP-62 > 100 µM | M14 > 100 µM | OVCAR-3 > 100 µM | SK-OV-3 > 100 µM | SK-MEL-2 > 100 µM | OVCAR-8 > 100 µM | NCI-H226 > 100 µM | K562 > 100 µM | COLO 205 > 100 µM | Malme-3M > 100 µM | RPMI-8226 > 100 µM

NC(=O)CCC(Nc1c2ccccc2nc2ccccc12)C(=O)O (stereo unspecified)
inactive: OVCAR-5 > 100 µM | M14 > 100 µM | OVCAR-3 56.8 µM | SK-MEL-2 > 100 µM | OVCAR-8 > 100 µM | NCI-H226 > 100 µM | K562 45.7 µM | SR 55.2 µM | COLO 205 > 100 µM | Malme-3M > 100 µM | RPMI-8226 17.2 µM

COc1ccc2nc3cc(Cl)ccc3c(Sc3ccc([N+](=O)[O-])cc3C)c2c1
inactive: OVCAR-5 > 100 µM | SNB-19 > 100 µM | HOP-62 > 100 µM | M14 > 100 µM | OVCAR-3 > 100 µM | SK-OV-3 > 100 µM | SK-MEL-2 > 100 µM | OVCAR-8 > 100 µM | NCI-H226 > 100 µM | K562 > 100 µM | SR > 100 µM | COLO 205 4.06 µM | Malme-3M > 100 µM

Clc1cc2n[se]nc2cc1Cl
inactive: OVCAR-5 > 100 µM | SNB-19 > 100 µM | HOP-62 > 100 µM | M14 > 100 µM | SK-OV-3 > 100 µM | SK-MEL-2 > 100 µM | OVCAR-8 > 100 µM | K562 > 100 µM | SR > 100 µM | Malme-3M > 100 µM | RPMI-8226 > 100 µM

[N-]=[N+]=NC1C(Cl)C(=O)NC(=O)N1[C@H]1C[C@H](O)[C@@H](CO)O1 (stereo partly specified)
inactive: OVCAR-5 > 100 µM | SNB-19 > 100 µM | HOP-62 > 100 µM | M14 > 100 µM | OVCAR-3 > 100 µM | SK-OV-3 > 100 µM | SK-MEL-2 > 100 µM | OVCAR-8 > 100 µM | K562 > 100 µM | COLO 205 > 100 µM | Malme-3M 13.3 µM

COC(=O)C(C(=O)C(=O)Nc1ccc([N+](=O)[O-])cc1)c1nc2ccc([N+](=O)[O-])cc2nc1O (stereo unspecified)
inactive: OVCAR-5 > 100 µM | SNB-19 > 100 µM | HOP-62 > 100 µM | M14 76.6 µM | OVCAR-3 > 100 µM | SK-OV-3 > 100 µM | SK-MEL-2 > 100 µM | OVCAR-8 > 100 µM | NCI-H226 > 100 µM | K562 39.2 µM | SR > 100 µM | COLO 205 > 100 µM | Malme-3M > 100 µM

CN(c1nc(=[N+](C)C)ss1)C1CCCCC1
inactive: OVCAR-5 > 100 µM | SNB-19 70.5 µM | HOP-62 > 100 µM | M14 > 100 µM | SK-OV-3 > 100 µM | SK-MEL-2 > 100 µM | OVCAR-8 > 100 µM | NCI-H226 > 100 µM | K562 > 100 µM | SR > 100 µM | Malme-3M > 100 µM | RPMI-8226 62.1 µM

CC1=C(C(=O)Nc2c(C)cccc2C)C(c2ccc3c(c2)OCO3)C(C(=O)Nc2c(C)cccc2C)=C(C)N1
inactive: OVCAR-5 19.1 µM | SNB-19 15.3 µM | HOP-62 23.1 µM | M14 18.1 µM | OVCAR-3 36.3 µM | SK-OV-3 77.3 µM | OVCAR-8 18.1 µM | NCI-H226 17.5 µM | K562 13.4 µM | SR 22.5 µM | COLO 205 21.9 µM | Malme-3M 20.2 µM

CSc1nc(NC(=O)O)c(N(C(C)=O)C(=O)O)c(=O)n1C
inactive: OVCAR-5 > 100 µM | SNB-19 > 100 µM | M14 > 100 µM | OVCAR-3 > 100 µM | SK-MEL-2 > 100 µM | OVCAR-8 > 100 µM | NCI-H226 > 100 µM | K562 > 100 µM | COLO 205 > 100 µM | Malme-3M > 100 µM | RPMI-8226 > 100 µM

C=C/C=C/NC(=O)OCc1ccccc1
inactive: OVCAR-5 > 100 µM | SNB-19 > 100 µM | HOP-62 > 100 µM | M14 > 100 µM | OVCAR-3 > 100 µM | SK-OV-3 > 100 µM | SK-MEL-2 > 100 µM | OVCAR-8 > 100 µM | K562 > 100 µM | SR 98.9 µM | COLO 205 > 100 µM | RPMI-8226 82.8 µM
